Several values for one entry are separate records, joined by “and”; a condition that tells them apart may be missing. Equal values may be shown once.
What was measured:
hCB2 [1] = molecular target: T1, hCB2 (Homo sapiens, UniProt P34972); experiment: Cerep HTRF cAMP inhibition assay, hCB2 CHO-K1; assay type: cell-based; set-up: host or cells: HEK293SL cells, transient PEI transfection; settings: for functional response, concentration-response point (FigS7d): replicate columns;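 for all read-outs here: compounds incubated 30 min at 37 °C with hCB2 CHO-K1 cells, cAMP detected by HTRF, HBSS as basal and reference agonist as stimulated control, run in triplicate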
T1 sequence (P34972 whole entry): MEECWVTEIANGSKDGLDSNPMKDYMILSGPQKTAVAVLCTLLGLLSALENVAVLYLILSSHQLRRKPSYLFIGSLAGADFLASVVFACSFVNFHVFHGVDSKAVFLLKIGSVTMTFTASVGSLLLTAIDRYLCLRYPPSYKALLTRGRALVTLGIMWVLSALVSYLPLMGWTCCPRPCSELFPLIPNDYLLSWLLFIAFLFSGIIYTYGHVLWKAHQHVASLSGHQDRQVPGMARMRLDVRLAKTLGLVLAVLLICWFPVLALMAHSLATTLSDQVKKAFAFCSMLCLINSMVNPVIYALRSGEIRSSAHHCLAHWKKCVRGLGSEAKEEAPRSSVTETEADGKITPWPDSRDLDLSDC
Description: (§1) The hCB1/2 CHO-K1 cells (ATCC: CCL-61) are suspended in HBSS buffer (Invitrogen) complemented with 20 mM HEPES (pH 7.4), then distributed in microplates at a density of 5.103 cells/well in the presence of either of the following: HBSS (basal control), the reference agonist (stimulated control) or the test compounds. […] Following 30 min incubation at 37 °C, the cells are lysed, and the fluorescence acceptor (D2-labeled cAMP) and fluorescence donor (anti-cAMP antibody labeled with europium cryptate) are added. […] Each measurement was done in triplicate.

CB1 (rCB1) = CB1 (rCB1) (Rattus norvegicus, UniProt P20272); experiment: Radioligand competition binding, [3H]-CP-55,940, rat brain membranes; settings: rCB1
CB1 (rCB1), sequence (P20272 whole entry): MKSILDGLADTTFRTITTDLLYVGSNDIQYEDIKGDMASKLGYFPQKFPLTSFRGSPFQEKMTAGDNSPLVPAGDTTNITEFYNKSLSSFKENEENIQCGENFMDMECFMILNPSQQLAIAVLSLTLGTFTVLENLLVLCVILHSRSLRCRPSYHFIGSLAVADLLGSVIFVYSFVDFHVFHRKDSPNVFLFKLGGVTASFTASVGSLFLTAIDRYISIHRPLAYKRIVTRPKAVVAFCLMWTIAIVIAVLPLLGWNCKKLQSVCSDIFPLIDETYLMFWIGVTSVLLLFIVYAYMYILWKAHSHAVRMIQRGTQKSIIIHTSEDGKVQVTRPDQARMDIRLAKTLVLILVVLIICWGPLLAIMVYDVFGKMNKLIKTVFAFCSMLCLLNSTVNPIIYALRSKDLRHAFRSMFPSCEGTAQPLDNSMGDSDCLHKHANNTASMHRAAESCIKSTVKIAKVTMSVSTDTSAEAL

hCB1 [2] = molecular target: T2, hCB1 (Homo sapiens, UniProt P21554); experiment: Tango β-arrestin-2 recruitment, HTLA cells, CB1R; assay type: cell-based; set-up: expressed in transfected cells; host or cells: HTLA cells (gift of R. Axel), transient transfection; settings: Log[drug]
T2 sequence (P21554 whole entry): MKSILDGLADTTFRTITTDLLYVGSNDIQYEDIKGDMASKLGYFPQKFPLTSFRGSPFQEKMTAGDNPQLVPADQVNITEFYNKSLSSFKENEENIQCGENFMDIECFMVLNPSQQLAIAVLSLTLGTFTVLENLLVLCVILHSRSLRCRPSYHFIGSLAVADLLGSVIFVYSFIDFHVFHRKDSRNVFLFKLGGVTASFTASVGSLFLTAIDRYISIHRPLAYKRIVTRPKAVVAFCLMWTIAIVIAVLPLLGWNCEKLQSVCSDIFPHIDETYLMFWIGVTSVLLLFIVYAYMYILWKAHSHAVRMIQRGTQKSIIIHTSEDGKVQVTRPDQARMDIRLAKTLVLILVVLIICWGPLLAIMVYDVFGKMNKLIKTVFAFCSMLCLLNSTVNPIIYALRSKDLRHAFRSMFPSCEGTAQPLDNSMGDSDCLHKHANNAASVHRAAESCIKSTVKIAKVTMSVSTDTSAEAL

hCB2 [3] = molecular target: T1, hCB2; experiment: Tango β-arrestin-2 recruitment, HTLA cells, CB2R; assay type: cell-based; set-up: expressed in transfected cells; host or cells: HEK293 cells stably expressing human CB2R (Laboratory of Ken Mackie); settings: hCB2
Description: The Tango β-arrestin-2 recruitment assays were performed as described[83]. In brief, HTLA cells (a gift from the laboratory of R. Axel) were transiently transfected with human CB1R or CB2R Tango DNA construct overnight in DMEM supplemented with 10 % FBS, 100 µg ml−1 streptomycin and 100 U ml−1 penicillin. The transfected cells were then plated into poly-L-lysine-coated 384-well white clear-bottom cell culture plates in DMEM containing 1% dialysed FBS at a density of 10,000–15,000 cells per well. After incubation for 6 h, the plates were added with drug solutions prepared in DMEM containing 1% dialysed FBS for overnight incubation. On the day of assay, medium and drug solutions were removed and 20 µl per well of BrightGlo reagent (Promega) was added. The plates were further incubated for 20 min at room temperature and counted using the Wallac TriLux Microbeta counter (PerkinElmer). The results were analysed using GraphPad Prism 9. Each experiment was performed in triplicate and functional IC50 values were determined from the mean of three independent experiments.

hCB1 [4] = molecular target: T2, hCB1; experiment: DiscoverX PathHunter β-arrestin-2 recruitment; assay type: cell-based; settings: individual replicates;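 note: CHO-K1 cells expressing hCB1, agonist mode, compound exposure with 1% vehicle, chemiluminescence read-out of the β-arrestin-2 recruitment signal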
hCB1 [5] = molecular target: T2, hCB1; experiment: Cerep HTRF cAMP inhibition assay, hCB1 CHO-K1; assay type: cell-based; set-up: host or cells: HEK293SL cells, transient PEI transfection
Description: as §1

hCB2 [6] = molecular target: T1, hCB2; experiment: TRUPATH BRET2 GoA dissociation, HEK293T; assay type: cell-based; set-up: expressed in transfected cells; host or cells: HEK293T cells (ATCC: CRL-3216), transient co-transfection; settings: Log[drug], replicate columns

Cc1cc(C(=O)N2CC3(CCC3)C2C2CCCO2)nn1-c1cccc(C(F)(F)F)c1 (centres unmarked) [‘3737]
Emax (hCB2 [1]; CHO-K1, hCB2): 45% | functional response, concentration-response point (FigS7d) (hCB2 [1]; Concentration [M] 1e-12): -30 and 18.5 and 4.6 | functional response, concentration-response point (FigS7d) (hCB2 [1]; Concentration [M] 1e-11): 15.9 and 16.3 and 22.7 | functional response, concentration-response point (FigS7d) (hCB2 [1]; Concentration [M] 1e-10): 3.3 and 8.5 and 15.6 | functional response, concentration-response point (FigS7d) (hCB2 [1]; Concentration [M] 1e-9): 40.4 and -11.1 and 23.4 | functional response, concentration-response point (FigS7d) (hCB2 [1]; Concentration [M] 1e-8): 41.2 and 37.3 and 34.7 | functional response, concentration-response point (FigS7d) (hCB2 [1]; Concentration [M] 1e-7): 47.6 and 60.7 and 69.2 | functional response, concentration-response point (FigS7d) (hCB2 [1]; Concentration [M] 1e-6): 52.3 and 67.9 and 43.7 | functional response, concentration-response point (FigS7d) (hCB2 [1]; Concentration [M] 1e-5): 46.2 and 40.4 and 47.6 | Cerep cAMP pEC50 (hCB2 [1]; hCB2): 8.4 [7.7 – 12.5] | EC50 (hCB2 [1]; hCB2): 4.3 nM | pKi [95% CI] (CB1 (rCB1)): 6.76 [6.5 – 7.03] | response, replicate values of concentration-response curve (FigS7f) (hCB1 [2]; M = -4.52): 16.1787 and -30.1888 and -21.8736 and -37.3037 and -30.7086 and -43.6201 and -17.4903 and -7.002 and -28.2206 and 69.1202 and 86.7632 | response, replicate values of concentration-response curve (FigS7f) (hCB1 [2]; M = -5): 10.5 and 4.251 and -11.4922 and -24.0074 and 39.1171 and 4.908 and -25.6442 and 7.194 and 4.112 and 35.3652 and 54.7761 | response at Log[drug], M -5 (FigS4e) (hCB1 [2]; M = -5, individual replicates): 1.604 and 1.6378 and -0.1263 and 3.554 and -1.645 and -3.332 and -3.586 and -3.254 and -1.133 and -2.551 and -0.4401 and -2.2823 | response, replicate values of concentration-response curve (FigS7f) (hCB1 [2]; M = -5.52): -34.1436 and -19.4525 and -21.2651 and -33.8536 and -16.1649 and -20.5572 and -2.476 and -19.5818 and -27.1597 and -5.334 and 9.411 | response at Log[drug], M -5.52 (FigS4e) (hCB1 [2]; M = -5.52, individual replicates): 3.364 and 3.2967 and 3.89 and 5.267 and -2.445 and -3.368 and -3.286 and -3.18 and -0.5298 and -0.4645 and -2.331 and -1.157 | response, replicate values of concentration-response curve (FigS7f) (hCB1 [2]; M = -6): 47.6523 and 12.1859 and 4.34 and -19.6283 and -3.001 and -0.2146 and 2.4245 and 18.2472 and 13.6095 and 40.7237 and 38.7735 | response at Log[drug], M -6 (FigS4e) (hCB1 [2]; M = -6, individual replicates): 5.688 and 6.311 and 5.608 and 6.012 and -1.436 and -3.213 and -2.355 and -0.1315 and -0.6439 and -0.4319 and -1.117 and -0.5542 | response, replicate values of concentration-response curve (FigS7f) (hCB1 [2]; M = -6.52): 26.7755 and 17.066 and 0.4863 and -24.0472 and -30.3238 and -3.24 and 14.0743 and -8.114 and 32.4836 and -15.0304 and -19.0948 | response at Log[drug], M -6.52 (FigS4e) (hCB1 [2]; M = -6.52, individual replicates): 5.756 and 5.2335 and 6.796 and 5.427 and -1.042 and -1.74 and -1.178 and 0.9023 and 2.299 and 1.818 and -0.3423 and 0.155 | response, replicate values of concentration-response curve (FigS7f) (hCB1 [2]; M = -7): 34.9133 and -3.95 and -16.1188 and -35.3 and 25.4625 and -10.8968 and -21.6834 and 6.2943 and 0.9695 and -12.3146 and 7.534 | response at Log[drug], M -7 (FigS4e) (hCB1 [2]; M = -7, individual replicates): 8.884 and 5.924 and 8.758 and 7.292 and -0.04536 and -0.9069 and -0.4556 and -0.1931 and 0.8804 and 2.804 and 1.011 and 0.1957 | response, replicate values of concentration-response curve (FigS7f) (hCB1 [2]; M = -7.52): -5.053 and -15.3203 and -3.0249 and -6.279 and -50.5337 and -10.2997 and -15.5807 and -8.983 and -20.2588 and 4.854 and 34.2352 | response at Log[drug], M -7.52 (FigS4e) (hCB1 [2]; M = -7.52, individual replicates): 9.415 and 8.198 and 9.343 and 6.627 and -1.362 and -1.444 and -1.617 and 0.25 and 3.66 and 1.117 and 0.375 and 3.994 | response at Log[drug], M -8 (FigS4e) (hCB1 [2]; M = -8, individual replicates): 8.737 and 7.057 and 9.276 and 8.661 and -0.8249 and 2.133 and -0.7879 and -0.8084 and 1.019 and 1.329 and 1.361 and 1.467 | response at Log[drug], M -8.52 (FigS4e) (hCB1 [2]; M = -8.52, individual replicates): 12.5705 and 14.1572 and 15.386 and 12.0363 and 0.2264 and -0.5023 and 0.2681 and 0.2421 and 3.757 and 10.0248 and 2.888 and 3.985 | response, replicate values of concentration-response curve (FigS7f) (hCB1 [2]; M = -9): 8.713 | response at Log[drug], M -9 (FigS4e) (hCB1 [2]; M = -9, individual replicates): 14.7823 and 12.9338 and 10.7167 and 15.0494 and -0.7053 and 1.382 and -0.9032 and 2.064 and 3.902 and 4.367 and 2.588 and 2.216 | response, replicate values of concentration-response curve (FigS7f) (hCB1 [2]; M = -9.52): -15.5865 and 2.109 and -19.0089 and -14.201 and 8.65 and -30.6423 and 15.2767 and -7.75 and 4.87 and -25.5104 and 1.592 | response at Log[drug], M -9.52 (FigS4e) (hCB1 [2]; M = -9.52, individual replicates): 13.1261 and 12.6453 and 12.7896 and 11.1868 and 3.428 and 1.32 and 2.251 and 2.397 and 2.423 and 1.937 and 2.288 and 2.144 | response, replicate values of concentration-response curve (FigS7f) (hCB1 [2]; M = -10): -11.9485 and -4.635 and -5.484 and 10.0562 and 9.379 and -4.05 and 21.9756 and 8.952 and 10.1035 and -36.3186 and 8.518 | response at Log[drug], M -10 (FigS4e) (hCB1 [2]; M = -10, individual replicates): 11.8653 and 11.8119 and 13.3986 and 14.0664 and 1.366 and 1.523 and 1.018 and -1.502 and 5.629 and 3.467 and 5.091 and 7.656 | response at Log[drug], M -10.52 (FigS4e) (hCB1 [2]; M = -10.52, individual replicates): 14.5419 and 16.8873 and 18.068 and 18.8961 and 0.7314 and -0.5544 and 7.931 and 2.309 and 2.226 and 3.798 and 2.154 and 1.523 | response at Log[drug], M -11 (FigS4e) (hCB1 [2]; M = -11, individual replicates): 12.4743 and 12.4476 and 8.323 and 8.772 and 2.428 and 1.528 and 2.267 and 2.496 and 5.774 and 4.76 and 2.712 and 3.85 | response at Log[drug], M -11.52 (FigS4e) (hCB1 [2]; M = -11.52, individual replicates): 6.5336 and 8.19 and 7.298 and 6.6351 and 3.735 and 0.95 and 2.715 and 0.09109 and 2.743 and 1.926 and 0.799 and -0.6593 | response at Log[drug], M -12 (FigS4e) (hCB1 [2]; M = -12, individual replicates): -0.6945 and 1.426 and -1.629 and 0.8975 and 0.8147 and 0.1796 and -0.8095 and -0.1848 and 0.03361 and 0.3025 and -0.05947 and -0.2767 | Emax (hCB2 [3]; HTLA, read-out: Tango ß-arrestin recruitment Emax): 9% | Tango ß-arrestin recruitment pEC50 (hCB2 [3]): 5.8 [5.7 – 5.9] | EC50 (hCB2 [3]; read-out: Tango ß-arrestin recruitment EC50): 1500 nM | response at log[M] -5 (FigS4f) (hCB1 [4]; log[M] = -5): 2.937 and 3.369 | response at log[M] -5.47712 (FigS4f) (hCB1 [4]; log[M] = -5.47712): 2.132 and 1.959 | response at log[M] -5.95424 (FigS4f) (hCB1 [4]; log[M] = -5.95424): 0.8089 and 2.3908 | response at log[M] -6.43136 (FigS4f) (hCB1 [4]; log[M] = -6.43136): 0.2049 and 1.2691 | response at log[M] -6.90849 (FigS4f) (hCB1 [4]; log[M] = -6.90849): -0.5141 and 0.32 | response at log[M] -7.38561 (FigS4f) (hCB1 [4]; log[M] = -7.38561): 0.003595 and 0.06112 | response at log[M] -7.86273 (FigS4f) (hCB1 [4]; log[M] = -7.86273): 0.32 and 0.4063 | response at log[M] -8.33985 (FigS4f) (hCB1 [4]; log[M] = -8.33985): 0.003595 and -0.3703 | response at log[M] -8.81697 (FigS4f) (hCB1 [4]; log[M] = -8.81697): 0.2049 and 0.8664 | response at log[M] -9.29409 (FigS4f) (hCB1 [4]; log[M] = -9.29409): -0.4278 and -0.5141 | Emax (hCB1 [5]; CHO-K1): 99% | Cerep cAMP pEC50 (hCB1 [5]; hCB1): 6.5 [6.0 – 6.8] | EC50 (hCB1 [5]; hCB1): 326 nM | functional response, concentration-response point (FigS7e, normalized) (hCB2 [6]; M = -5): 7.15 and 0.08499 and 7.219 and 7.788 and 7.891 and 6.738 and 8.045 and 7.095 and 12.8638 and 12.2484 and 11.5588 and 11.0027 | functional response, concentration-response point (FigS7e, normalized) (hCB2 [6]; M = -5.52): 5.302 and 6.612 and 7.12 and 7.029 and 6.875 and 5.885 and 5.894 and 6.474 and 7.41 and 9.531 and 8.971 and 8.263 | functional response, concentration-response point (FigS7e, normalized) (hCB2 [6]; M = -6): 1.28 and 2.3503 and 2.331 and 3.337 and 2.385 and 1.616 and 1.676 and 1.052 and 3.161 and 3.087 and 4.085 and 2.086 | functional response, concentration-response point (FigS7e, normalized) (hCB2 [6]; M = -6.52): 0.8173 and 0.5745 and 0.009098 and 0.9653 and 0.9374 and 0.7056 and 0.8258 and 0.7943 and 1.033 and 1.163 and 0.8851 and 1.056 | functional response, concentration-response point (FigS7e, normalized) (hCB2 [6]; M = -7): 0.2747 and 0.06981 and 0.08878 and 0.8059 and -0.06126 and 0.2392 and 0.2936 and 0.4538 and 0.7999 and 0.4069 and 0.5552 and 0.6998 | functional response, concentration-response point (FigS7e, normalized) (hCB2 [6]; M = -7.52): 0.1912 and 0.08499 and -0.09335 and 0.658 and 0.6598 and 0.9202 and 0.07323 and 0.6226 and 0.2957 and 0.8814 and 0.5663 and 0.5329 | functional response, concentration-response point (FigS7e, normalized) (hCB2 [6]; M = -8): 0.324 and -0.4159 and -0.002285 and 0.1419 and 0.1305 and 0.7285 and 0.8 and 0.368 and 0.355 and 0.3476 and 0.5886 and 0.8221 | functional response, concentration-response point (FigS7e, normalized) (hCB2 [6]; M = -8.52): -0.4237 and 0.0337 and -0.52 and -0.4863 and 0.2451 and -0.1507 and 1.084 and 0.6009 and 0.6985 and 0.3222 and -0.007056 and 0.3034 | functional response, concentration-response point (FigS7e, normalized) (hCB2 [6]; M = -12): 0.3611 and 0.2552 and -0.6451 and 0.02889
